According to article PMC11882969 (Nature Communications, 2025):
Where two headings read alike, the source gives them in different places.

Columns and labels:
CB1 (rCB1) [1] = target: T1, CB1 (rCB1) (Rattus norvegicus, UniProt P20272); assay: Single-point radioligand displacement screen; format: binding; details: 10 µM, 1 µM or 300 nM by cell colour (not visible)
hCB1 = hCB1 (Homo sapiens, UniProt P21554); assay: bioSensAll ebBRET signaling profiling, hCB1; format: cell-based; design: host or cells: HEK293SL cells, transient PEI transfection; details: for Barr2+GRK2 hCB1 response: Barr2+GRK2 biosensor; for Gi1 hCB1 / GoB hCB1: single replicate values, FigS6a; for EC50: read-out: EC50 [95% CI]; for Emax: normalized to CP-55,940
Chain of hCB1 (P21554 whole entry): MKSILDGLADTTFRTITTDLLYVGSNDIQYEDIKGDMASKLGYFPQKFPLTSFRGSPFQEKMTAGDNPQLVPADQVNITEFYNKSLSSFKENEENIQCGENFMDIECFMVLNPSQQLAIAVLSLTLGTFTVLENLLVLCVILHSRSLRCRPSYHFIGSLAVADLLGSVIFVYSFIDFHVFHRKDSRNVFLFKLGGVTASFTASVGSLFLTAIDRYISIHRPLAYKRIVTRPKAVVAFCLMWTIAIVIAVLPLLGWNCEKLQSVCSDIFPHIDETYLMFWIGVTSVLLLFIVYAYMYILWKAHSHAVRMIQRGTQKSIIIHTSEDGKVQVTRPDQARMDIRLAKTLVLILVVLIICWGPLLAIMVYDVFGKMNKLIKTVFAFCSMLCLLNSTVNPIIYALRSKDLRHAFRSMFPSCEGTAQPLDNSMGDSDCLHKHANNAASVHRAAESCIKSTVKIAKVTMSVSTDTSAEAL

CB1 (rCB1) [2] = target: T1, CB1 (rCB1); assay: Radioligand competition binding, [3H]-CP-55,940, rat brain membranes

T1 sequence (P20272 whole entry): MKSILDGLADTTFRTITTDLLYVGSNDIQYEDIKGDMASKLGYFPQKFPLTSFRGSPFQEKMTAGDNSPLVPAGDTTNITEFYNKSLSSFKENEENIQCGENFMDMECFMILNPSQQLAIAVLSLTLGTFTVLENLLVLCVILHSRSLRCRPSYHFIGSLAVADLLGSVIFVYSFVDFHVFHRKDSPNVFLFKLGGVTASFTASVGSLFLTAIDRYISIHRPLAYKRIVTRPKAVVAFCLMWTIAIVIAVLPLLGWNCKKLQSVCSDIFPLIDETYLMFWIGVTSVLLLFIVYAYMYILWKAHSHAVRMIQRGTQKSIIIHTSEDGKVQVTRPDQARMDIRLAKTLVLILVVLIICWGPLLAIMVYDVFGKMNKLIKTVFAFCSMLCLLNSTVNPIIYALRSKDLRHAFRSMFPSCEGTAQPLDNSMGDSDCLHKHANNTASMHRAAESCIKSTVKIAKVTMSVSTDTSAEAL

In the case of `Cc1nn(Cc2ccc(Cl)cc2)c(C)c1C(=O)OCC1CSc2ccccc2O1` (centres unmarked) [‘5463], the “% 1H-CP-55,940 displacement (mean) from single point screen” value (CB1 (rCB1) [1]) is reported as 81.83%, the “Barr2+GRK2 hCB1 response” value (hCB1; Log [Compound] (M) -4.22186) is reported as -7.036 and the “Barr2+GRK2 hCB1 response” value (hCB1; Log [Compound] (M) -4.63927) is reported as -40.2196. For the same compound, the “Barr2+GRK2 hCB1 response” value (hCB1; Log [Compound] (M) -5.05788) was -35.4335, the “Barr2+GRK2 hCB1 response” value (hCB1; Log [Compound] (M) -5.47381) was -41.4959 and the “Barr2+GRK2 hCB1 response” value (hCB1; Log [Compound] (M) -5.89285) was -45.6439. For the same compound, the “Barr2+GRK2 hCB1 response” value (hCB1; Log [Compound] (M) -6.31878) was -47.8774, the “Barr2+GRK2 hCB1 response” value (hCB1; Log [Compound] (M) -6.72585) was -53.9398 and the “Barr2+GRK2 hCB1 response” value (hCB1; Log [Compound] (M) -7.14267) was -43.7294. The “Barr2+GRK2 hCB1 response” value (hCB1; Log [Compound] (M) -7.55284) was -45.9629, the “Barr2+GRK2 hCB1 response” value (hCB1; Log [Compound] (M) -8) was -54.2588 and the “Barr2+GRK2 hCB1 response” value (hCB1; Log [Compound] (M) -8.22186) was -7.036. The “Barr2+GRK2 hCB1 response” value (hCB1; Log [Compound] (M) -8.39794) was -23.3088, the “Barr2+GRK2 hCB1 response” value (hCB1; Log [Compound] (M) -8.68787) was -41.1769 and the “Barr2+GRK2 hCB1 response” value (hCB1; Log [Compound] (M) -9.15521) was -53.6207. For the same compound, the “Barr2+GRK2 hCB1 response” value (hCB1; Log [Compound] (M) -9.61989) was -38.9433, the “Barr2+GRK2 hCB1 response” value (hCB1; Log [Compound] (M) -10.0969) was -52.3444 and the “Barr2+GRK2 hCB1 response” value (hCB1; Log [Compound] (M) -10.5529) was -37.0289. The “Barr2+GRK2 hCB1 response” value (hCB1; Log [Compound] (M) -11.0177) was -49.4727, the “Barr2+GRK2 hCB1 response” value (hCB1; Log [Compound] (M) -11.4949) was -43.0913 and the “Barr2+GRK2 hCB1 response” value (hCB1; Log [Compound] (M) -11.9208) was -24.266. The “Barr2+GRK2 hCB1 response” value (hCB1; Log [Compound] (M) -12.3979) was -7.993, the “Barr2+GRK2 hCB1 response” value (hCB1; Log [Compound] (M) -12.8861) was -18.5227 and the “Barr2+GRK2 hCB1 response” value (hCB1; Log [Compound] (M) -13.3979) was 10.832. For the same compound, the “Gi1 hCB1” value (hCB1; Log [Compound] (M) -4.22186) was 28.0981, the “GoB hCB1” value (hCB1; Log [Compound] (M) -4.22186) was 24.5257 and the “Gi1 hCB1” value (hCB1; Log [Compound] (M) -4.63927) was 21.0665. The “GoB hCB1” value (hCB1; Log [Compound] (M) -4.63927) was 14.8206, the “Gi1 hCB1” value (hCB1; Log [Compound] (M) -5.05788) was 16.6796 and the “GoB hCB1” value (hCB1; Log [Compound] (M) -5.05788) was 10.4802. For the same compound, the “Gi1 hCB1” value (hCB1; Log [Compound] (M) -5.47381) was 14.3358, the “GoB hCB1” value (hCB1; Log [Compound] (M) -5.47381) was 11.0879 and the “Gi1 hCB1” value (hCB1; Log [Compound] (M) -5.89285) was 7.716. The “GoB hCB1” value (hCB1; Log [Compound] (M) -5.89285) was 6.331, the “Gi1 hCB1” value (hCB1; Log [Compound] (M) -6.31878) was 3.392 and the “GoB hCB1” value (hCB1; Log [Compound] (M) -6.31878) was 2.3203. For the same compound, the “Gi1 hCB1” value (hCB1; Log [Compound] (M) -6.72585) was -0.6618, the “GoB hCB1” value (hCB1; Log [Compound] (M) -6.72585) was -6.013 and the “Gi1 hCB1” value (hCB1; Log [Compound] (M) -7.14267) was -2.705. The “GoB hCB1” value (hCB1; Log [Compound] (M) -7.14267) was -6.777, the “Gi1 hCB1” value (hCB1; Log [Compound] (M) -7.55284) was -2.958 and the “GoB hCB1” value (hCB1; Log [Compound] (M) -7.55284) was -3.8083. For the same compound, the “Gi1 hCB1” value (hCB1; Log [Compound] (M) -8) was -2.752, the “GoB hCB1” value (hCB1; Log [Compound] (M) -8) was -8.791 and the “Gi1 hCB1” value (hCB1; Log [Compound] (M) -8.22186) was 6.512. For the same compound, the “GoB hCB1” value (hCB1; Log [Compound] (M) -8.22186) was 0.4626, the “Gi1 hCB1” value (hCB1; Log [Compound] (M) -8.39794) was -3.021 and the “GoB hCB1” value (hCB1; Log [Compound] (M) -8.39794) was -7.2806. For the same compound, the “Gi1 hCB1” value (hCB1; Log [Compound] (M) -8.68787) was 0.4468, the “GoB hCB1” value (hCB1; Log [Compound] (M) -8.68787) was -0.5617 and the “Gi1 hCB1” value (hCB1; Log [Compound] (M) -9.15521) was -1.422. The “GoB hCB1” value (hCB1; Log [Compound] (M) -9.15521) was -2.124, the “Gi1 hCB1” value (hCB1; Log [Compound] (M) -9.61989) was -0.7093 and the “GoB hCB1” value (hCB1; Log [Compound] (M) -9.61989) was -5.475. The “Gi1 hCB1” value (hCB1; Log [Compound] (M) -10.0969) was -1.0102, the “GoB hCB1” value (hCB1; Log [Compound] (M) -10.0969) was -3.201 and the “Gi1 hCB1” value (hCB1; Log [Compound] (M) -10.5529) was -0.3926. For the same compound, the “GoB hCB1” value (hCB1; Log [Compound] (M) -10.5529) was -3.652, the “Gi1 hCB1” value (hCB1; Log [Compound] (M) -11.0177) was -0.8518 and the “GoB hCB1” value (hCB1; Log [Compound] (M) -11.0177) was -4.381. The “Gi1 hCB1” value (hCB1; Log [Compound] (M) -11.4949) was -1.279, the “GoB hCB1” value (hCB1; Log [Compound] (M) -11.4949) was -3.965 and the “Gi1 hCB1” value (hCB1; Log [Compound] (M) -11.9208) was -2.99. For the same compound, the “GoB hCB1” value (hCB1; Log [Compound] (M) -11.9208) was -2.853, the “Gi1 hCB1” value (hCB1; Log [Compound] (M) -12.3979) was -0.25 and the “GoB hCB1” value (hCB1; Log [Compound] (M) -12.3979) was -4.034. For the same compound, the “Gi1 hCB1” value (hCB1; Log [Compound] (M) -12.8861) was -2.879, the “GoB hCB1” value (hCB1; Log [Compound] (M) -12.8861) was -4.451 and the “Gi1 hCB1” value (hCB1; Log [Compound] (M) -13) was -0.7885. The “GoB hCB1” value (hCB1; Log [Compound] (M) -13) was -4.468, the “Gi1 hCB1” value (hCB1; Log [Compound] (M) cell empty) was 0.7319 and the “GoB hCB1” value (hCB1; Log [Compound] (M) cell empty) was -2.437. For the same compound, the “pEC50 [95% CI]” value (hCB1; hCB1 Gi1) was 5.3 [3.4 – 5.8], the “pEC50 [95% CI]” value (hCB1; hCB1 GoB) was 5.1 [6.0] and the EC50 (hCB1; hCB1 Gi1) was 4.94 µM. For the same compound, the EC50 (hCB1; hCB1 GoB) was 7.47 µM, the Emax (hCB1; read-out: Emax [95% CI], hCB1 Gi1) was 31% and the Emax (hCB1; read-out: Emax [95% CI], hCB1 GoB) was 32%. For the same compound, the “pKi [95% CI]” value (CB1 (rCB1) [2]; rCB1) was 6.1 [5.8 – 6.4] and the Ki (CB1 (rCB1) [2]; read-out: Ki [95% CI], rCB1, [3H]-CP-55,940) was 825 nM.
